Experimental data published in patent US20180008587A1, “THIOHYDANTOIN ANDROGEN RECEPTOR ANTAGONISTS FOR THE TREATMENT OF CANCER” (Jaressen Pharmaceutica NV, priority 2016, published 2018).
Where a chain is given by its changes, count along the chain named.

What was measured:
AR T877A = biological target: T1, AR T877A (Homo sapiens, UniProt P10275, T878A); experiment: Luciferase transcriptional reporter assay, mutant AR, HepG2, antagonist mode; assay type: cell-based; conditions: HepG2, 90 pM R1881, 48 hours; * denotes incomplete inhibition (otherwise 100%); read-out: Antagonism; IC50, AR construct T877A
T1 construct: expressed in transfected cells; host or cells: HepG2
T1 sequence (P10275 1-920 T878A): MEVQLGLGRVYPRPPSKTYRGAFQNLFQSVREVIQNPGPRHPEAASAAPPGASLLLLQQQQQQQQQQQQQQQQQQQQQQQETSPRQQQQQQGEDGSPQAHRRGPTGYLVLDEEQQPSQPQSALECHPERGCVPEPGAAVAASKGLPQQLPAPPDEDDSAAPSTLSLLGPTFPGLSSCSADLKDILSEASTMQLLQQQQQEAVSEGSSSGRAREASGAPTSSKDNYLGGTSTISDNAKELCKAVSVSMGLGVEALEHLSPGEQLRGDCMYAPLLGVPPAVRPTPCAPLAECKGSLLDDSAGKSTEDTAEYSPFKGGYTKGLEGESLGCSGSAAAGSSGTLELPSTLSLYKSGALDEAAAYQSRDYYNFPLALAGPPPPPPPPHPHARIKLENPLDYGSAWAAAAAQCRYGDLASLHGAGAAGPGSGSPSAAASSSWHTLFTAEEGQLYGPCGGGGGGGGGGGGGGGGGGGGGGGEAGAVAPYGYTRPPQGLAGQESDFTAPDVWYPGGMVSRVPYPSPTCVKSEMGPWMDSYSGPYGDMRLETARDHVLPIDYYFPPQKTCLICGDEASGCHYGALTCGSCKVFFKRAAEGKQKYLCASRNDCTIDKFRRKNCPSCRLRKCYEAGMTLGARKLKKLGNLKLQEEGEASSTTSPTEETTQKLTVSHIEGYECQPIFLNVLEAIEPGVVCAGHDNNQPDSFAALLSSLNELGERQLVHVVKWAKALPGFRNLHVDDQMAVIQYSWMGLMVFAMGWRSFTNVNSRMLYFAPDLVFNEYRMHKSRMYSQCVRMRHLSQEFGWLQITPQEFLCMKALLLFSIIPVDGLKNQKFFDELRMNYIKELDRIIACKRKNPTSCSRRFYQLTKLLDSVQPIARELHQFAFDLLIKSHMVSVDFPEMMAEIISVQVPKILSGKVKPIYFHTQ
Protocol: (§1) HepG2 cells were maintained in EMEM supplemented with 10% FBS. One day before transfection, the media was changed to EMEM with 10% CSS. T-150 flasks were transiently transfected using 120 μL Lipofectamine 2000 (Life Technologies), 30 μg mutant cDNA (expression vector)—mutant cDNA tested were L701H, T877A, W741C and H874Y—and 40 μg 4×ARE-Luciferase (reporter vector) in OptiMEM and the flasks were incubated overnight. Cells were then trypsinized, counted and resuspended at 500,000 cells/mL. For agonist mode, the compounds of Formula (I) are serially diluted and 50 μL of the compound added per well. 50 μL of the cells are added to each well and incubated for 48 hours. For antagonist mode, a final concentration of 90 pM R1881 was added to the diluted compounds and incubated for 48 hours. The plates were then assayed using SteadyGlo and read on the Envision. Percent Stimulation and Inhibition is determined and analyzed using GraphPad Prism.
(§2) All values are calculated relative to the activity of R1881 induced androgen receptor activity (n≧3).

AR W741C = biological target: T2, AR W741C (Homo sapiens, UniProt P10275, W742C); experiment: as above; assay type: cell-based; conditions: HepG2, 90 pM R1881, 48 hours; * denotes incomplete inhibition (otherwise 100%); read-out: Antagonism; IC50, AR construct W741C
T2 construct: expressed in transfected cells; host or cells: HepG2
T2 sequence (P10275 1-920 W742C): T1 sequence (P10275 1-920 T878A) with W742C, A878T
Protocol: as §1, §2

Row | IC50 (AR T877A) | IC50 (AR W741C) | SMILES
1 | 3.59 µM | 5.79 µM | N#Cc1ncc(N2C(=O)C3(CCC3)N(c3ccc(OC4CCNCC4)cc3)C2=S)cc1C(F)(F)F [Cpd 35, 5-[5-oxo-8-[4-(4-piperidyloxy)phenyl]-7-thioxo-6,8-diazaspiro[3.4]octan-6-yl]-3-(trifluoromethyl)pyridine-2-carbonitrile]
2 | 7.51 µM |  | N#Cc1ncc(N2C(=O)C3(CCC3)N(c3ccc(C(=O)NCCCO)c(F)c3)C2=S)cc1C(F)(F)F [Cpd 40, 4-[6-[6-cyano-5-(trifluoromethyl)-3-pyridyl]-5-oxo-7-thioxo-6,8-diazaspiro[3.4]octan-8-yl]-2-fluoro-N-(3-hydroxypropyl)benzamide]
